Measured values taken from patent US4262015A, “N-alkylthio- and N-arylthiosulfinylcarbamate esters” (priority 1979, dated 1981).
Converted amounts (≈) assume the structure as drawn. Like-named read-outs stand apart in the source and are kept apart here.

How the values were obtained:
[1] = in vivo; details: mouse, po
Method: Mammalian toxicity was determined against Swiss white mice. The test compound was applied orally using corn oil as the carrier.

[2] = system: house flies, Musca domestica; assay: insecticidal activity against house flies, topical application, mortality at 24 h; type: in vivo; details: read-out: House flies LD50
Method: (§1) Representative compounds of the N-arylthio- and N-alkylthiosulfinylcarbamate esters of the invention were tested for insecticidal activity against two insect species, house flies, Musca domestica, and mosquito larvae, Culex pipiens. Stock 1% concentrated solutions of each of the test compounds were made in acetone, and such solutions diluted with acetone to a concentration of 0.001-0.1%. House flies were treated topically on the notum by 1 μl of each of the diluted acetone solutions and percent mortality was counted 24 hours after application. Insects were held at a constant temperature of 60° F. Larvicidal activity was determined by applying 1 ml of the acetone solution in 100 ml of water containing 20 3rd instar mosquito larvae. Results are presented as LD50 in μg/g for house flies and LC50 in ppm for mosquito larvae.

[3] = system: mosquito larvae, Culex pipiens; assay: larvicidal activity against mosquito larvae; type: in vivo; details: 3rd instar mosquito larvae, 1 ml acetone solution in 100 ml water
Method: as §1

[4] = house flies, topical on notum, 1 μl acetone solution, 24 hours

| Compound | LD50 [1] [mg/kg] | LD50 ([2]; topical, 24 h) [mg/kg] | LC50 [3] [µg/mL] | LD50 [2, 4] [mg/kg] |
| --- | --- | --- | --- | --- |
| CNC(=O)Oc1ccccc1OC(C)C [2-isopropoxyphenyl methylcarbamate, reference compound] | 60 | – | – | – |
| CCCCS[S+]([O-])N(C)C(=O)Oc1cccc2c1OC(C)(C)C2 (centres unmarked) [Example I, 2,3-dihydro-2,2-dimethylbenzofuranyl-7 (methyl)(n-butylthiosulfinyl)carbamate] | 45 | 16.5 | – | – |
| Cc1cc(C(C)(C)C)ccc1S[S+]([O-])N(C)C(=O)Oc1cccc2c1OC(C)(C)C2 (centres unmarked) [Example V, 2,3-dihydro-2,2-dimethylbenzofuranyl-7 (methyl)(2-methyl-4-t-butylphenylthiosulfinyl)carbamate] | 70 | 8.8 | – | – |
| CCCCS[S+]([O-])N(C)C(=O)Oc1ccccc1OC(C)C (centres unmarked) [Example VI, 2-isopropoxyphenyl (methyl)(n-butylthiosulfinyl)carbamate] | 1050 | 31 | – | – |
| CC(C)c1cccc(OC(=O)N(C)[S+]([O-])SC(C)(C)C)c1 (centres unmarked) [Example X, 3-isopropylphenyl (methyl)(t-butylthiosulfinyl)carbamate] | 250 | 75 | – | – |
| CN(C(=O)Oc1cccc2c1OC(C)(C)C2)[S+]([O-])SC(C)(C)C (centres unmarked) [II, 2,3-dihydro-2,2-dimethylbenzofuranyl-7 (methyl)(t-butylthiosulfinyl)carbamate] | 70 | 9 | 0.01 (≈ 0.028 µM) | – |
| CN(C(=O)Oc1cccc2c1OC(C)(C)C2)[S+]([O-])Sc1ccccc1 (centres unmarked) [III, 2,3-dihydro-2,2-dimethylbenzofuranyl-7 (methyl)(phenylthiosulfinyl)carbamate] | 32 | 7 | 0.05 (≈ 0.132 µM) | – |
| CN(C(=O)Oc1cccc2c1OC(C)(C)C2)[S+]([O-])Sc1ccc(C(C)(C)C)cc1 (centres unmarked) [IV, 2,3-dihydro-2,2-dimethylbenzofuranyl-7 (methyl)(4-t-butylphenylthiosulfinyl)carbamate] | 92 | 11.8 | – | – |
| CSC(C)=NOC(=O)N(C)[S+]([O-])Sc1ccccc1 (centres unmarked) [IX, S-methyl N-[N'-methyl-N'-phenylthiosulfinylcarbamoyloxy]thioacetimidate] | 150 | – | – | 6.5 |
| Cc1cc(C(C)(C)C)ccc1S[S+]([O-])N(C)C(=O)Oc1ccccc1OC(C)C (centres unmarked) [VII, 2-isopropoxyphenyl (methyl)(2-methyl-4-t-butylphenylthiosulfinyl)carbamate] | > 1000 | 27 | – | – |
| CSC(C)=NOC(=O)N(C)[S+]([O-])SC(C)(C)C (centres unmarked) [VIII, S-methyl N-[N'-methyl-N'-t-butylthiosulfinylcarbamoyloxy]thioacetimidate] | 135 | – | – | 5.5 |
| Cc1cc(C(C)(C)C)ccc1S[S+]([O-])N(C)C(=O)Oc1cccc(C(C)C)c1 (centres unmarked) [XI, 3-isopropylphenyl (methyl)(2-methyl-4-t-butylphenylthiosulfinyl)carbamate] | 450 | 62.5 | – | – |
| CCCCCCCCCCCCS[S+]([O-])N(C)C(=O)ON=CC(C)(C)SC (centres unmarked) [XII, 2-methyl-2-(methylthio)propionaldehyde O-[(methyl)(dodecylthiosulfinyl)carbamoyl]oxime] | – | – | – | 12 |
| CN(C(=O)Oc1cccc2ccccc12)[S+]([O-])SC(C)(C)C (centres unmarked) [XIII, 1-naphthyl (methyl)(t-butylthiosulfinyl)carbamate] | > 1000 | 235 | – | – |
| CN(C(=O)Oc1cccc2ccccc12)[S+]([O-])Sc1ccccc1 (centres unmarked) [XIV, 1-naphthyl (methyl)(phenylthiosulfinyl)carbamate] | > 1000 | 350 | – | – |
| CNC(=O)Oc1cccc2c1OC(C)(C)C2 [carbofuran, 2,3-dihydro-2,2-dimethyl-7-benzofuranyl methylcarbamate, reference compound] | 2 to 8 | ~6.5 | – | – |
